For orientation: IC50 means the concentration needed to halve the response being measured. As a reminder, the AC50 is the concentration giving half of the maximal activity seen. One may read the EC50 as the concentration at which the effect is half-maximal.

In test [1] the target is T1, Methionyl-tRNA synthetase, putative (Trypanosoma brucei brucei, UniProt Q38C91). It counts as functional, Trypanosoma brucei brucei strain 927/4 GUTat10.1.
A short description of test [2]: Counterscreen for inhibitors of Trypanosoma brucei methionyl tRNA synthetase (MetRS): Luminescence-based cell-based high throughput dose response assay to identify compounds that are cytotoxic to Jurkat human T lymphocyte cells. Format: functional. (In general: A counterscreen serves to expose hits that act by an unwanted route or on another target.)
Test [3] deals with T1, Methionyl-tRNA synthetase, putative. It counts as functional, Trypanosoma brucei brucei strain 927/4 GUTat10.1. This is another data set of the same source.
Test [4] in a line: human cervical cancer cell viability loss – 24 h, plate reader, dry powder, cytotoxicity control, dose response (AID 686928). Format: functional, cell-based. The conditions noted are these: HeLa.
Test [5] concerns the target ATP-dependent translocase ABCB1 (Homo sapiens, UniProt P08183). Put plainly: inhibition of P-gp mediated JC-1 efflux – Jurkat-DNR cells, flow cytometry, dose response (AID 1689). Format: functional. (A flow cytometer gives signals particle by particle.)
The target of test [6] is Broad substrate specificity ATP-binding cassette transporter ABCG2 (Homo sapiens, UniProt Q9UNQ0). As to the kind of experiment: blockers of JC-1 export by ABCG2 – Ig-MXP3 cells, flow cytometry, dose response (AID 1690). It counts as functional.
A short description of test [7]: cervical cancer cell viability loss – HeLa, 24 h, plate reader, powder samples, set 3, cytotoxicity control, dose response (AID 651864). Format: functional, cell-based.
Test [8] can be described thus: HeLa cell viability loss – 24 h, dry powder, set 2, cytotoxicity control, dose response (AID 651774). It counts as functional, cell-based.
The target in test [9] is Matrix metalloproteinase-14 (Homo sapiens, UniProt P50281). As to the kind of experiment: Dose Response confirmation of uHTS hits for a small molecule inhibitors of MT1-MMP activation in a fluorescence assay set 1. Format: functional.
Test [10] has as its target Oxysterols receptor LXR-beta (Homo sapiens, UniProt P55055). It counts as functional, cell-based.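 Note: agonist activity at LXR measured by a cell-based luminescence readout across a dose range, run as a counterscreen for daf-12 agonists; HEK293 cells with Gal4-LXR fusion and GAL4-driven luciferase reporter; potency for activation of Gal4-LXR reporter so compounds are agonists.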
Test [11] has as its target Beta-lactamase (Salmonella choleraesuis (strain SC-B67), UniProt Q5J463). Put plainly: Epi-absorbance-based counterscreen for selective VIM-2 inhibitors: dose response biochemical high throughput screening assay to identify inhibitors of TEM-1 serine-beta-lactamase.
The target of test [12] is T2, Beta-lactamase (Pseudomonas aeruginosa, UniProt Q79MP6). As to the kind of experiment: inhibition of IMP-1 beta-lactamase activity – biochemical, epi-absorbance, selectivity assay for VIM-2 inhibitor project, dose response (AID 1920).
T2 sequence (Q79MP6 whole entry): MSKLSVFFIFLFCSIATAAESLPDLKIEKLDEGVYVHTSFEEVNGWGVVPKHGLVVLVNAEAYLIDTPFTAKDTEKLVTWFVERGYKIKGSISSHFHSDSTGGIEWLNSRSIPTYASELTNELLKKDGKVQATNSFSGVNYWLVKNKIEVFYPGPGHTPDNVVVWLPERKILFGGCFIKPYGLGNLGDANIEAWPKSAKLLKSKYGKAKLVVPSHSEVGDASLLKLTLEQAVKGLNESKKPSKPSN
The target of test [13] is T2, Beta-lactamase. As to the kind of experiment: […] counterscreen for selective VIM-2 inhibitors: dose response biochemical high throughput screening assay to identify inhibitors of IMP-1 metallo-beta-lactamase.
In test [14] the target is DNA dC->dU-editing enzyme APOBEC-3A (Homo sapiens, UniProt P31941). As to the kind of experiment: A3A deaminase inhibition for selectivity – biochemical, dose response (AID 504722). Format: functional.
DNA dC->dU-editing enzyme APOBEC-3A, sequence (P31941 whole entry): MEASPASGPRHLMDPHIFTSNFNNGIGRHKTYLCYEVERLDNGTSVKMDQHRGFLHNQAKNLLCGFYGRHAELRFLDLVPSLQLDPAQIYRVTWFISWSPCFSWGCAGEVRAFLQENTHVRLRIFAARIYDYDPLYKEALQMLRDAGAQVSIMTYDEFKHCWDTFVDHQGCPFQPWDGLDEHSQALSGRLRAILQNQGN
Test [15] deals with DNA dC->dU-editing enzyme APOBEC-3G (Homo sapiens, UniProt Q9HC16). As to the kind of experiment: Dose Response confirmation of small molecule APOBEC3G DNA Deaminase Inhibitors via a fluorescence-based single-stranded DNA deaminase assay. [Related pubchem assays (depositor defined):AID493012, AID493028]. It counts as functional.
DNA dC->dU-editing enzyme APOBEC-3G, sequence (Q9HC16 whole entry): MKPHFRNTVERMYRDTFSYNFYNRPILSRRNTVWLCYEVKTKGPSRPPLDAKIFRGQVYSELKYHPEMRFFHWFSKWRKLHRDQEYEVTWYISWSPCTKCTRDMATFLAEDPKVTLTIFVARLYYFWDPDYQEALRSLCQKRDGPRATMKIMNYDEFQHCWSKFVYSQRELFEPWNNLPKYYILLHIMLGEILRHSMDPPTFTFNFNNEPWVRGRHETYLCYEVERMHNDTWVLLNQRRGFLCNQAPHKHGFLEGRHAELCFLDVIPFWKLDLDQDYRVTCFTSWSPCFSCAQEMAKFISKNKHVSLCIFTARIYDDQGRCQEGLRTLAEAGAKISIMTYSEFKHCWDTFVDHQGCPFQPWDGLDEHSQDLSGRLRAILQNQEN
A further test concerns the target Kallikrein-7 (Homo sapiens, UniProt P49862). Put plainly: Fluorescence Intensity-based biochemical primary high throughput dose response assay to identify activators of kallikrein-7 (K7) zymogen.
Test [16] in a line: optical artefact potency, substrate without enzyme – biochemical, fluorescence intensity, triplicate, artefact control for kallikrein-7 zymogen activator project, dose response (AID 720493).
Test [17] concerns the target Long-chain-fatty-acid--AMP ligase FadD28 (Mycobacterium tuberculosis, UniProt P9WQ59). Put plainly: Fluorescence polarization aasay to screen for inhibitors that compete for the binding of FadD28 to a bisubstrate Measured in Biochemical System Using Plate Reader - 2147-01_Inhibitor_Dose_CherryPick_Activity. It counts as functional, Mycobacterium tuberculosis H37Rv.

The nature of test [18]: cytotoxicity in MITF-independent A375 cells – cell-based, CellTiter-Glo luminescence, dry powder, set 4, counter-screen for MITF inhibitor project, dose response (AID 624364).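 Note: A375 melanoma cells are MITF independent so this is a counter screen.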 Format: functional. The conditions noted are these: A-375. A general note: ATP-based viability assays read luminescence as a measure of living cells.
Test [19] can be described thus: viability loss in MITF-independent A375 cells – cell-based, CellTiter-Glo luminescence, dry powder, set 2, counter-screen for MITF inhibitor project, dose response (AID 624489).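 Note: actives are compounds lowering A375 viability meaning general cytotoxicity.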 It counts as functional. Particulars: A-375.

Calls of active or inactive are those of the source. Bounds are passed on as bounds.

T1 sequence (Q38C91 whole entry): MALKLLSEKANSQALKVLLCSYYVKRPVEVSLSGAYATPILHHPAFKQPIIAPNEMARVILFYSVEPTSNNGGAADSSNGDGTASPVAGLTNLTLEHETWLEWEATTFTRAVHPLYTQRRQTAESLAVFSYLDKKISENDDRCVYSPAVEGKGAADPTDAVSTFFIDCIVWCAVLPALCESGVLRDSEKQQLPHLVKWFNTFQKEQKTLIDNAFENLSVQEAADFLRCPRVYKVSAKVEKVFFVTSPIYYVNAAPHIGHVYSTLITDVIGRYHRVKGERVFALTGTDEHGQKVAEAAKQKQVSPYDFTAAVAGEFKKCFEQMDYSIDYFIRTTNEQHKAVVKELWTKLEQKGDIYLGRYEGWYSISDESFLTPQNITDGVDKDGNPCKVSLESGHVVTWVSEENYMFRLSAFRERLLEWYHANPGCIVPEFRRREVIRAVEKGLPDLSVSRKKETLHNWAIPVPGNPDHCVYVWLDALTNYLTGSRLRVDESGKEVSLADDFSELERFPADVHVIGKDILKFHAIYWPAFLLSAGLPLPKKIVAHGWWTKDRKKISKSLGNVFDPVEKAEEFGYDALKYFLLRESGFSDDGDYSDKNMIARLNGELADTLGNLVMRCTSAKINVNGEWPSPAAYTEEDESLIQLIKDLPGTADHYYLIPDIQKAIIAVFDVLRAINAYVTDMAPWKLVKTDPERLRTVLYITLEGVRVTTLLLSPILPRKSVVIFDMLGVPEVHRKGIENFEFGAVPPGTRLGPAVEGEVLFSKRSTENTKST
Oxysterols receptor LXR-beta, sequence (P55055 whole entry, the tested form may be a part): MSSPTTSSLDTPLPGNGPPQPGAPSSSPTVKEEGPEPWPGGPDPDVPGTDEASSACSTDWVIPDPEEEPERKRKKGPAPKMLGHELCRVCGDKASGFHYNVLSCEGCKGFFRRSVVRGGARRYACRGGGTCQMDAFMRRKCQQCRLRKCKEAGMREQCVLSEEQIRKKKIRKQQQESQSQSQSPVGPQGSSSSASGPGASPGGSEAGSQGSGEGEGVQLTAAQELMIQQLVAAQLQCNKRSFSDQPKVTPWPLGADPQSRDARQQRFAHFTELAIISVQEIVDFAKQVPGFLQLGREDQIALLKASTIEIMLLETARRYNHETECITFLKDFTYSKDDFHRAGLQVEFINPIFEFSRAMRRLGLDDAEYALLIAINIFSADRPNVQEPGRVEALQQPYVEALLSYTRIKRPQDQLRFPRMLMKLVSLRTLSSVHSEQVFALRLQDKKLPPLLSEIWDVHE
Beta-lactamase (Salmonella choleraesuis (strain SC-B67), UniProt Q5J463), sequence (Q5J463 whole entry): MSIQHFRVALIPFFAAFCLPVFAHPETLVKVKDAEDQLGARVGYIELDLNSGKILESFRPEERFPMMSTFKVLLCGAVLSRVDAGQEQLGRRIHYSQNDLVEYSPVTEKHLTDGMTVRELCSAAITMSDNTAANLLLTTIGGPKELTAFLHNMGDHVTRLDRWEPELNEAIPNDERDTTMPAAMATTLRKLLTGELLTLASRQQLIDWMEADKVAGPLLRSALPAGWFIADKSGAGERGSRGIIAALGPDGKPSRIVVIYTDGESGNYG
Kallikrein-7, sequence (P49862 whole entry): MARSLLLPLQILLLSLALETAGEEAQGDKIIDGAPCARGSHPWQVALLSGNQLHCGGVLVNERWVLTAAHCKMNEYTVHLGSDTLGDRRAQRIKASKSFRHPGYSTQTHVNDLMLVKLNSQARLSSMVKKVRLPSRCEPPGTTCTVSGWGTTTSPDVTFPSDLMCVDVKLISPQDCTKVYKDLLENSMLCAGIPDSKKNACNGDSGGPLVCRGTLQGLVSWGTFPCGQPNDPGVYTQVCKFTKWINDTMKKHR
ATP-dependent translocase ABCB1, sequence (P08183 whole entry): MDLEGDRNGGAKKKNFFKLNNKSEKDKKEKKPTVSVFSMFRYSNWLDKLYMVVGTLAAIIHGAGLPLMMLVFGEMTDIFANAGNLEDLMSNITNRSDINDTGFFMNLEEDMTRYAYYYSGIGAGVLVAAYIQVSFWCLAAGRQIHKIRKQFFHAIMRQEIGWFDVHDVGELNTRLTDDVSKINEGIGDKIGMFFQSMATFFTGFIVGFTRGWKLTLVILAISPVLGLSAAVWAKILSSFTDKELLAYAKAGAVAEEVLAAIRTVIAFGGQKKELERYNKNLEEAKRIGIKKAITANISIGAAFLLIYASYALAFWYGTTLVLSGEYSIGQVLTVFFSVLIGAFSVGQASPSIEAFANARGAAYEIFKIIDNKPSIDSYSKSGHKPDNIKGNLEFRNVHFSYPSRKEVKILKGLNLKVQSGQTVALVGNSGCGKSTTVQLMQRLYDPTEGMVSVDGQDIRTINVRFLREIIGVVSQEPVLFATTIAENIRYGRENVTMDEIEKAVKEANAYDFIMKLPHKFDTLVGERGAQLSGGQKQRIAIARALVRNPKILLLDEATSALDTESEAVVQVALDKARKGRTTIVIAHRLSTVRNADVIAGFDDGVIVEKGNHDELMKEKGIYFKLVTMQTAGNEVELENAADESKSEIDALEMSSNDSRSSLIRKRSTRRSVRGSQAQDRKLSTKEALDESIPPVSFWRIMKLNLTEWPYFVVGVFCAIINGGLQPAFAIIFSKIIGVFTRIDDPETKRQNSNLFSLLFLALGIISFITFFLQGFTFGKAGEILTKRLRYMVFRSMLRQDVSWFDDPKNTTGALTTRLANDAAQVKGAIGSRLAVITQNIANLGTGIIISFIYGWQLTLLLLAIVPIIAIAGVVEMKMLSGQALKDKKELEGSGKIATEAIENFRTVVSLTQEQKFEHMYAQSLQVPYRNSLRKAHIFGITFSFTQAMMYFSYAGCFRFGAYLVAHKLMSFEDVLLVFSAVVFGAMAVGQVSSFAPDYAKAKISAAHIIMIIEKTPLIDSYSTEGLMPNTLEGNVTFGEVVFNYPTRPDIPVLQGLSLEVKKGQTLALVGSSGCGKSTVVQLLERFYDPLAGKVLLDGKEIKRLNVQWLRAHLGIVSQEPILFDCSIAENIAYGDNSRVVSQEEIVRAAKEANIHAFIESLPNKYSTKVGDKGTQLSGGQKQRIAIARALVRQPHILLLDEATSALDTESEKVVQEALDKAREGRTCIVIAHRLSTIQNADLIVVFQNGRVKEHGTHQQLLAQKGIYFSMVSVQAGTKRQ
Long-chain-fatty-acid--AMP ligase FadD28, sequence (P9WQ59 whole entry): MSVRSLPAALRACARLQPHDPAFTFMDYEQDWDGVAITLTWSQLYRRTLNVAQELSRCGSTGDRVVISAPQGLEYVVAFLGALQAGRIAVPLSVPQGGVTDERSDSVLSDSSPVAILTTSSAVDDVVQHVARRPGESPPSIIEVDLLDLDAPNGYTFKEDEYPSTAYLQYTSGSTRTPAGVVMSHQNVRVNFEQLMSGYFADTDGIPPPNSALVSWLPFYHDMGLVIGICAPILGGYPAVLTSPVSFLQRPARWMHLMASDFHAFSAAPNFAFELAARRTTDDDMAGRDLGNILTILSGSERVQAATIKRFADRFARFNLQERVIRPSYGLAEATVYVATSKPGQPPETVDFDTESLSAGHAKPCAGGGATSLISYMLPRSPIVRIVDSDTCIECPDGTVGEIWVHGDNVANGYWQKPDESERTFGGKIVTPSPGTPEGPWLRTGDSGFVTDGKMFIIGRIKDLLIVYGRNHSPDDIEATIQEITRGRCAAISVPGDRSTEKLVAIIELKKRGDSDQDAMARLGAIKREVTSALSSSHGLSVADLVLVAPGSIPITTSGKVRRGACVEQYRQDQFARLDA

In the case of `Cn1cc(S(=O)(=O)N2CCOCC2)cc1C(=O)NCc1ccc(Cl)cc1`, the IC50 is 29.8 µM (inactive) in test [1], 83.3 µM (inactive) in test [2] and 11.2 µM (inactive) in [3].
With `O=C(Nc1nnc(-c2ccc(Cl)cc2)o1)C1CCCCC1`, in test [4], the AC50 was > 160 µM (inactive).
`CN(C)c1ccc(P(=O)(Nc2cccc(C(F)(F)F)c2)N2CCOCC2)c(NC(=O)c2cccs2)c1` (stereo not given): the EC50 in [5] was 0.286 µM (active); in test [6], 1.21 µM (inactive).
Regarding `CCn1nnnc1NCc1ccc(C(C)C)cc1`, the AC50 in test [7] was 144 µM (active); in [8], > 70 µM (inactive).
On to `Nc1ccc(NC(=O)c2ccccc2)c2c1C(=O)c1ccccc1C2=O`, for which the IC50 in test [9] is 19.5 µM (active).
As to `Cc1ccsc1/C=N/NC(=O)c1sccc1C`, the EC50 in test [10] was > 67.5 µM (inactive).
As for `C=C(C)Cn1c(-c2cccs2)n[nH]c1=S`, the IC50 on Beta-lactamase [11] is > 59.6 µM (inactive); at Beta-lactamase [12] it was > 59.6 µM (inactive); on Beta-lactamase [13] it was > 59.6 µM (inactive); in test [14], > 100 µM (inactive); in test [15] it was 7.53 µM (active).
For `COc1ccc(-c2coc3cc(O)c(OC)cc3c2=O)cc1` [CASTANIN], the values for the EC50 (on Kallikrein-7; in [16]) were 9 µM (active) and > 7.73 µM (active), respectively.
With `COc1ccc(OC)c(C2=NOC(C(=O)Nc3cccc(C(C)=O)c3)C2)c1` (stereo not given), the AC50 in [17] was 34.6 µM (active).
With `C=CCNC1=C(NS(=O)(=O)c2ccc(Br)cc2)C(=O)c2ccccc2C1=O`, the AC50 in [18] and in test [19] was > 70 µM (inactive) each time.

The record behind these values is ChEMBL document CHEMBL1201862, “PubChem BioAssay data set” (2004).
